Legend:
[1] = tested on: MDA-MB-231 breast cancer cells; experiment: MTT cytotoxicity assay, MDA-MB-231; assay type: cell-based; conditions: MDA-MB-231, MTT; for IC50: mean of three independent experiments ± SD, read-out: IC50 Value MDA-MB-231
Procedure: (§1) All newly synthetic compounds were tested for cytotoxicity using a six-dose MTT colorimetric assay on three cancer cell lines; namely, breast cancer cells (MDA-MB-231), colorectal adenocarcinoma cells (HT-29) and renal cancer cells (U-937). […] However, renal cancer cells (U-937) were discovered to be the least sensitive.
(§2) Using a six-dose MTT colorimetric assay, all new synthetic compounds were tested for cytotoxicity against three cancer cell lines: MDA-MB-231 breast cancer cells, HT-29 colorectal adenocarcinoma cells, and U-937 renal cancer cells. […] These cell lines were supplied by ATCC (American Type Culture Collection) via the Holding company for biological products and vaccines (VACSERA, Cairo, Egypt). The reference control used was Methotrexate. Detailed descriptions of the MTT colorimetric assay’s protocol can be found in the Supplementary file.
(§3) 1.1.In-vitro cytotoxicity screening
(§4) Using a six-dose MTT colorimetric assay, allnew synthetic compounds were tested for cytotoxicity against three cancer cell lines: MDA-MB-231 breast cancer cells,HT-29 colorectal adenocarcinoma cells, and U-937 renal […]
(§5) The cell lines were supplied by ATCC (American Type Culture Collection). The reference control used was Methotrexate. The cytotoxic activities of the examined compounds were quantified by inoculating a 96-well tissue culture plate with 1 X 10^5 cells / mL (100 uL/well) and incubating it at 37°C for 24 hours to develop a complete monolayer sheet. After forming a confluent sheet of cells, the growth medium was decanted from 96-well microtiter plates, and the cell monolayer was washed twice with wash media. Two-fold dilutions of tested samples were made in RPMI medium with 2% serum (maintenance medium), and 0.1 mL of each dilution was tested in different wells, with three wells serving as controls and receiving only maintenance medium. Following that, the plate was incubated at 37°C and examined. Cells were investigated for any physical signs of toxicity, such as partial or complete monolayer loss, rounding, shrinkage, or cell granulation. MTT solution was prepared (5mg/ml in PBS) (BIO BASIC CANADA INC), and 20 uL MTT solution was added to each well. After 5 minutes on a shaking table at150 rpm to thoroughly mix the MTT into the media, it was incubated (37°C, 5% CO2) for 4 hours to allow the MTT to be metabolized. Formazan (MTT metabolic product) was resuspended in 200 uL DMSO and shaken at 150 rpm for 5 minutes to thoroughly mix the formazan into the solvent. The optical density was measured at 560 nm, and the background was subtracted at 620 nm. Finally, the IC50 of the test compound in comparison to the reference was calculated using the GraphPad Prism software. […]

[2] = MTT cytotoxicity assay, U-937; assay type: cell-based; conditions: Homo sapiens, U-937, U937, MTT;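 also: Six-dose MTT colorimetric assay on cell monolayers, formazan absorbance read at 560 nm with 620 nm background removed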
Procedure: (§6) Using a six-dose MTT colorimetric assay [44, 66], all new synthetic compounds were tested for cytotoxicity against three cancer cell lines: MDA-MB-231 breast cancer cells, HT-29 colorectal adenocarcinoma cells, and U-937 renal cancer cells. […] These cell lines were supplied by ATCC (American Type Culture Collection) via the Holding company for biological products and vaccines (VACSERA, Cairo, Egypt). The reference control used was Methotrexate.
(§7) Using a six-dose MTT colorimetric assay [44, 66], allnew synthetic compounds were tested for cytotoxicity against three cancer cell lines: MDA-MB-231 breast cancer cells,HT-29 colorectal adenocarcinoma cells, and U-937 renal
(§8) The cell lines were supplied by ATCC (American Type Culture Collection). The reference control used was Methotrexate. The cytotoxic activities of the examined compounds were quantified by inoculating a 96-well tissue culture plate with 1 X 10^5 cells / mL (100 uL/well) and incubating it at 37°C for 24 hours to develop a complete monolayer sheet. After forming a confluent sheet of cells, the growth medium was decanted from 96-well microtiter plates, and the cell monolayer was washed twice with wash media. Two-fold dilutions of tested samples were made in RPMI medium with 2% serum (maintenance medium), and 0.1 mL of each dilution was tested in different wells, with three wells serving as controls and receiving only maintenance medium. Following that, the plate was incubated at 37°C and examined. Cells were investigated for any physical signs of toxicity, such as partial or complete monolayer loss, rounding, shrinkage, or cell granulation. MTT solution was prepared (5mg/ml in PBS) (BIO BASIC CANADA INC), and 20 uL MTT solution was added to each well. After 5 minutes on a shaking table at150 rpm to thoroughly mix the MTT into the media, it was incubated (37C, 5% CO2) for 4 hours to allow the MTT to be metabolized. Formazan (MTT metabolic product) was resuspended in 200 uL DMSO and shaken at 150 rpm for 5 minutes to thoroughly mix the formazan into the solvent. The optical density was measured at 560 nm, and the background was subtracted at 620 nm. Finally, the IC50 of the test compound in comparison to the reference was calculated using the GraphPad Prism software.

U-937 renal cancer cells = experiment: MTT cytotoxicity assay, U-937; assay type: cell-based; conditions: MTT; for IC50: Homo sapiens, U-937, mean of three independent experiments ± SD, read-out: IC50 Value U-937; for Toxicity %: U937;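 as to all read-outs here: Six-dose MTT colorimetric assay on cell monolayers, formazan absorbance read at 560 nm with 620 nm background removed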
Procedure: as §6, §7, §8

[3] = tested on: HT-29 colorectal adenocarcinoma cells; experiment: MTT cytotoxicity assay, HT-29; assay type: cell-based; conditions: MTT; for IC50: mean of three independent experiments ± SD, read-out: IC50 Value HT-29
Procedure: as §1, §2, §3, §4, §5

normal Vero cells = experiment: MTT cytotoxicity assay, normal Vero cells; assay type: cell-based; conditions: Vero, MTT;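 also: monolayers exposed to two-fold dilutions in 2% serum medium, MTT added for 4 h, formazan in DMSO read at 560 nm minus 620 nm, controls given medium alone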
Procedure: as §6, §7, §8

[4] = MTT cytotoxicity assay, normal Vero cells; assay type: cell-based; conditions: African green monkey, normal Vero cells, MTT;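 also: monolayers exposed to two-fold dilutions in 2% serum medium, MTT added for 4 h, formazan in DMSO read at 560 nm minus 620 nm, controls given medium alone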
Procedure: as §6, §7, §8

[5] = Homo sapiens, HT-29, HT29, 0.312 uM
[6] = Homo sapiens, HT-29, HT29, 0.625 uM
[7] = Homo sapiens, HT-29, HT29, 1.25 uM
[8] = Homo sapiens, HT-29, HT29, 2.5 uM
[9] = Homo sapiens, HT-29, HT29, 5 uM
[10] = Homo sapiens, HT-29, HT29, 10 uM

**Q.** What does the source list for `CN(Cc1cnc2nc(N)nc(N)c2n1)c1ccc(C(=O)N[C@@H](CCC(=O)O)C(=O)O)cc1` [Methotrexate, reference compound]?
**A.** IC50 ([1]; Homo sapiens): 2.79 ± 0.06 µM; viability at 0.078 µM ([1]; Homo sapiens, 0.078 uM): 99.9%; viability at 0.156 µM ([1]; Homo sapiens, 0.156 uM): 99.7%; viability at 0.312 µM ([1]; Homo sapiens, 0.312 uM): 99.6%; viability at 0.625 µM ([1]; Homo sapiens, 0.625 uM): 99.8%; viability at 1.25 µM ([1]; Homo sapiens, 1.25 uM): 81.5%; viability at 2.5 µM ([1]; Homo sapiens, 2.5 uM): 42.4%; viability at 5 µM ([1]; Homo sapiens, 5 uM): 19.5%; viability at 10 µM ([1]; Homo sapiens, 10 uM): 11.8%; Toxicity % ([1]; 0.078 uM): 0.0883%; Toxicity % ([1]; 0.156 uM): 0.2649%; Toxicity % ([1]; 0.312 uM): 0.3532%; Toxicity % ([1]; 0.625 uM): 0.2208%; Toxicity % ([1]; 1.25 uM): 18.45%; Toxicity % ([1]; 2.5 uM): 57.62%; Toxicity % ([1]; 5 uM): 80.53%; Toxicity % ([1]; 10 uM): 88.17%; viability at 0.078 µM ([2]; 0.078 uM): 99.9%; viability at 0.156 µM ([2]; 0.156 uM): 99.9%; viability at 0.312 µM [2]: 98.9%; viability at 0.625 µM [2]: 96.9%; viability at 1.25 µM [2]: 47.5%; viability at 2.5 µM [2]: 31.5%; viability at 5 µM [2]: 8.38%; viability at 10 µM [2]: 7.63%; IC50 (U-937 renal cancer cells): 1.22 ± 0.02 µM; Toxicity % (U-937 renal cancer cells; 0.078 uM): 0.1004%; Toxicity % (U-937 renal cancer cells; 0.156 uM): 0.0502%; Toxicity % (U-937 renal cancer cells; 0.312 uM): 1.104%; Toxicity % (U-937 renal cancer cells; 0.625 uM): 3.112%; Toxicity % (U-937 renal cancer cells; 1.25 uM): 52.46%; Toxicity % (U-937 renal cancer cells; 2.5 uM): 68.47%; Toxicity % (U-937 renal cancer cells; 5 uM): 91.62%; Toxicity % (U-937 renal cancer cells; 10 uM): 92.37%; Toxicity % ([3]; HT29, 0.078 uM): 0.5016%; Toxicity % ([3]; HT29, 0.156 uM): 0.912%; Toxicity % ([3]; HT29, 0.312 uM): 0.228%; Toxicity % ([3]; HT29, 0.625 uM): 26.95%; Toxicity % ([3]; HT29, 1.25 uM): 66.94%; Toxicity % ([3]; HT29, 2.5 uM): 89.83%; Toxicity % ([3]; HT29, 5 uM): 97.45%; Toxicity % ([3]; HT29, 10 uM): 97.58%; viability at 0.078 µM ([3]; Homo sapiens, HT-29, HT29, 0.078 uM): 99.5%; viability at 0.156 µM ([3]; Homo sapiens, HT-29, HT29, 0.156 uM): 99.1%; viability at 0.312 µM [3, 5]: 99.8%; viability at 0.625 µM [3, 6]: 73.1%; viability at 1.25 µM [3, 7]: 33.1%; viability at 2.5 µM [3, 8]: 10.2%; viability at 5 µM [3, 9]: 2.55%; viability at 10 µM [3, 10]: 2.42%; IC50 ([3]; Homo sapiens, HT-29): 0.99 ± 0.02 µM; Toxicity % (normal Vero cells; 0.312 uM): 0.3046%; Toxicity % (normal Vero cells; 0.625 uM): 0.04352%; Toxicity % (normal Vero cells; 1.25 uM): 0.7398%; Toxicity % (normal Vero cells; 2.5 uM): 2.698%; Toxicity % (normal Vero cells; 5 uM): 12.45%; Toxicity % (normal Vero cells; 10 uM): 49.78%; IC50 ([4]; mean of three independent experiments ± SD, read-out: In Vitro Cytotoxicity against Normal Cells IC50 Value, Vero Cells): 10.2 ± 0.3 µM; viability at 0.312 µM ([4]; Vero, 0.312 uM): 99.7%; viability at 0.625 µM ([4]; Vero, 0.625 uM): 100%; viability at 1.25 µM ([4]; Vero, 1.25 uM): 99.3%; viability at 2.5 µM ([4]; Vero, 2.5 uM): 97.3%; viability at 5 µM ([4]; Vero, 5 uM): 87.6%; viability at 10 µM ([4]; Vero, 10 uM): 50.2%

**Q.** With `Cn1c(=S)[nH]c(=O)c2nc(-c3ccccc3)c(-c3ccccc3)nc21` [Compound 10, 1-Methyl-6,7-diphenyl-2-thioxo-2,3-dihydropteridin-4(1H)-one] as the compound, how does the IC50 ([1]; Homo sapiens) read?
**A.** 3.4 ± 0.02 µM

**Q.** And the viability at 0.312 µM ([1]; Homo sapiens, 0.312 uM)?
**A.** 100%

**Q.** What about the viability at 0.625 µM ([1]; Homo sapiens, 0.625 uM) of the same compound?
**A.** 100%

**Q.** And the viability at 1.25 µM ([1]; Homo sapiens, 1.25 uM)?
**A.** 98.8%

**Q.** And the viability at 2.5 µM ([1]; Homo sapiens, 2.5 uM)?
**A.** 54.3%

**Q.** What about the viability at 5 µM ([1]; Homo sapiens, 5 uM) of the same compound?
**A.** 26.3%

**Q.** What about the viability at 10 µM ([1]; Homo sapiens, 10 uM) of the same compound?
**A.** 7.93%

**Q.** And the Toxicity % ([1]; 0.312 uM)?
**A.** 0%

**Q.** What about the Toxicity % ([1]; 0.625 uM) of the same compound?
**A.** 0%

**Q.** And the Toxicity % ([1]; 1.25 uM)?
**A.** 1.197%

**Q.** What about the Toxicity % ([1]; 2.5 uM) of the same compound?
**A.** 45.66%

**Q.** And the Toxicity % ([1]; 5 uM)?
**A.** 73.67%

**Q.** What about the Toxicity % ([1]; 10 uM) of the same compound?
**A.** 92.07%

**Q.** And the viability at 0.312 µM [2]?
**A.** 99.5%

**Q.** And the viability at 0.625 µM [2]?
**A.** 99.8%

**Q.** What about the viability at 1.25 µM [2] of the same compound?
**A.** 99.9%

**Q.** And the viability at 2.5 µM [2]?
**A.** 95.8%

**Q.** And the viability at 5 µM [2]?
**A.** 85%

**Q.** What about the viability at 10 µM [2] of the same compound?
**A.** 34.9%

**Q.** And the IC50 (U-937 renal cancer cells)?
**A.** 8.37 ± 0.23 µM

**Q.** And the Toxicity % (U-937 renal cancer cells; 0.312 uM)?
**A.** 0.5447%

**Q.** What about the Toxicity % (U-937 renal cancer cells; 0.625 uM) of the same compound?
**A.** 0.1634%

**Q.** What about the Toxicity % (U-937 renal cancer cells; 1.25 uM) of the same compound?
**A.** 0.05447%

**Q.** And the Toxicity % (U-937 renal cancer cells; 2.5 uM)?
**A.** 4.248%

**Q.** What about the Toxicity % (U-937 renal cancer cells; 5 uM) of the same compound?
**A.** 15.03%

**Q.** And the Toxicity % (U-937 renal cancer cells; 10 uM)?
**A.** 65.14%

**Q.** What about the Toxicity % ([3]; HT29, 0.312 uM) of the same compound?
**A.** 0%

**Q.** And the Toxicity % ([3]; HT29, 0.625 uM)?
**A.** 0%

**Q.** What about the Toxicity % ([3]; HT29, 1.25 uM) of the same compound?
**A.** 2.239%

**Q.** What about the Toxicity % ([3]; HT29, 2.5 uM) of the same compound?
**A.** 18.99%

**Q.** What about the Toxicity % ([3]; HT29, 5 uM) of the same compound?
**A.** 41.09%

**Q.** And the Toxicity % ([3]; HT29, 10 uM)?
**A.** 96.3%

**Q.** And the viability at 0.312 µM [3, 5]?
**A.** 100%

**Q.** What about the viability at 0.625 µM [3, 6] of the same compound?
**A.** 100%

**Q.** What about the viability at 1.25 µM [3, 7] of the same compound?
**A.** 97.8%

**Q.** And the viability at 2.5 µM [3, 8]?
**A.** 81%

**Q.** What about the viability at 5 µM [3, 9] of the same compound?
**A.** 58.9%

**Q.** What about the viability at 10 µM [3, 10] of the same compound?
**A.** 3.7%

**Q.** What about the IC50 ([3]; Homo sapiens, HT-29) of the same compound?
**A.** 5.63 ± 0.13 µM

**Q.** What about the melting point of the same compound?
**A.** 287 °C
